Data set [1] concerns human ileal apical-out enteroids. The note with it: 12.5 μg mL^–1 (34–39 μM), 4 h exposure. How it is done:
Effects on barrier integrity of apical-out enteroids after glab, licoA, and glycy exposure were evaluated with a dextran diffusion assay, adapted from Co et al.[14] […] Enteroids were allowed to settle by gravity (5 min) into a pellet, the FITC-dextran 4 kDa was aspirated, and enteroids were washed with DMEM/F12 (3 min, 250g, RT). Enteroids were suspended in fresh DMEM/F12, and they were imaged with an EVOS FL Auto 2 cell imaging system. Images were analyzed using ImageJ software (version 1.52).

Another data set deals with Caco-2 cells. Put plainly: Cytotoxicity by LDH leakage assay in Caco-2 cells. Conditions: proliferating and differentiated Caco-2 cells (differentiated: ref 17), cutoff 25%. It counts as cell-based, human. How it is done: The human colon adenocarcinoma cell line (Caco-2) was obtained from the American Type Culture Collection (ATCC; Manassas, VA, USA). Caco-2 cells were cultured in DMEM, in a humidified atmosphere of 5% CO2 at 37 °C until 80–90% confluency was reached. Effects on the cytotoxicity and cell viability (Section 2.6) were assessed in proliferating and differentiated Caco-2 cells. The effects on differentiated Caco-2 cells were recently described in our publication.[17] Proliferating and differentiated Caco-2 cells were seeded into 96-well plates at a density of 15,000 cells per cm^2.
Cytotoxicity and effects on cell viability after exposure to glab, licoA, and glycy in apical-out and apical-in enteroids (6.25–500 μg mL^–1) and proliferating Caco-2 cells (3.13–100 μg mL^–1) were determined by LDH leakage (Section 2.6.1) and WST-1 assays (Section 2.6.2), respectively. For this, stock solutions of 50 mg mL^–1 of glab, licoA, and glycy in DMSO were used. […] After 3 days in ODM, the effects on cytotoxicity and cell viability of glab, licoA, and glycy in apical-out and apical-in enteroids (passages between 3 and 17) were assessed after 4 and 24 h of incubation. […]
Cytotoxic effects of glab, licoA, and glycy were assessed by measuring leakage of intracellular lactate dehydrogenase (LDH) in the supernatant and analyzed using an LDH cytotoxicity detection kit (Roche Applied Science, Almere, The Netherlands), according to the manufacturer’s instructions. The LDH activity in the supernatant was expressed as the percentage of the maximum releasable LDH in enteroids or Caco-2 cells (enteroids or Caco-2 cells treated with 1% (v/v) Triton X-100) and calculated with eq 1. […] 1 in which exp. value is the UV absorbance at 492 nm (Tecan Spark or Tecan Infinite 200 Pro, Tecan Group Ltd., Zürich, Switzerland), background control is the medium with corresponding concentration of glab, licoA, or glycy, and high control is the maximum releasable LDH in enteroids or Caco-2 cells. […]
For orientation: Release of lactate dehydrogenase indicates damage to the cell membrane.

Data set [2] deals with human ileal apical-out enteroids. Put plainly: Cell viability by WST-1 assay in apical-out enteroids. It counts as cell-based. The note with it: 4 h exposure, range 6.25 up to 500 μg mL^–1. How it is done:
(§1) Cytotoxicity and effects on cell viability after exposure to glab, licoA, and glycy in apical-out and apical-in enteroids (6.25–500 μg mL^–1) and proliferating Caco-2 cells (3.13–100 μg mL^–1) were determined by LDH leakage (Section 2.6.1) and WST-1 assays (Section 2.6.2), respectively. For this, stock solutions of 50 mg mL^–1 of glab, licoA, and glycy in DMSO were used. […] An overview of the experimental conditions for the exposure experiments with glab, licoA, and glycy is shown in Table S2 (Supporting Information). In brief, apical-out and apical-in enteroids were grown for 7–10 days in OGM (∼200 enteroids per dome), after which the medium was changed to ODM (supplemented with 5 μM DAPT) to initiate enteroid differentiation. To generate apical-out enteroids, MG was removed from apical-in enteroids in OGM at day 7–10, as described in Section 2.3, and suspended in supplemented ODM. After 3 days in ODM, the effects on cytotoxicity and cell viability of glab, licoA, and glycy in apical-out and apical-in enteroids (passages between 3 and 17) were assessed after 4 and 24 h of incubation. For apical-out enteroids in a suspension, enteroids were pelleted by centrifugation (2 min, 200g, RT), after which the ODM was removed and 500 μL of the experimental agent was added. […] Caco-2 cells were grown for 48 h after seeding before experiments (passages 14–19) with proliferating cells and for 21 days after seeding (passages 14–33) with differentiated cells.[17] The medium (DMEM supplemented with FCS) was changed every 2 days. For exposure experiments, Caco-2 cells were incubated with glab, licoA, and glycy in DMEM without FCS, as FCS serves as an exogenous source of LDH.[22]
(§2) Effects on cell viability after stimulation by glab, licoA, and glycy were assessed by measuring cleavage of the tetrazolium salt WST-1 to formazan catalyzed by cellular mitochondrial dehydrogenases and analyzed using a WST-1 cell viability kit (PromoKine, Heidelberg, Germany), according to the manufacturer’s instructions. Cell viability was expressed as the percentage of the control cells (enteroids or Caco-2 cells grown in a medium) and was calculated with eq 2. [drawing 2] 2 in which exp. value is the UV absorbance at 450 nm (Tecan Spark or Tecan Infinite 200 Pro) and low control is the spontaneous cleavage of WST-1 to formazan by mitochondrial dehydrogenases in untreated enteroids or Caco-2 cells.
For orientation: Formazan colour is commonly taken as a measure of viable cells.

Assay in data set [3]: as above
It counts as cell-based, human. Conditions: human. As to the method:
as §1, §2

A further data set relates to Gram-positive bacteria. Further details: method as in PMID 36377761. Conditions: against Gram-positive bacteria, cited from earlier work.
Data set [4] relates to mouse jejunal apical-out enteroids. Further details: method as in PMID 38086658. Conditions: jejunum, cutoff 25%; cited from earlier work.
The test system is the same in data set [5]. The arrangement: method as in PMID 38086658. The note with it: jejunum, cutoff 25%; cited from earlier work. The source holds these as a separate data set.
In data set [6] the test system is mouse jejunal apical-in enteroids. The arrangement: method as in PMID 38086658. Conditions: jejunum, cutoff 25%; cited from earlier work.
In data set [7] the test system is human ileal apical-in enteroids. In words: Cell viability by WST-1 assay in apical-in enteroids. In kind it is cell-based. The note with it: 4 h. As to the method:
Cytotoxicity and effects on cell viability after exposure to glab, licoA, and glycy in apical-out and apical-in enteroids (6.25–500 μg mL^–1) and proliferating Caco-2 cells (3.13–100 μg mL^–1) were determined by LDH leakage (Section 2.6.1) and WST-1 assays (Section 2.6.2), respectively. For this, stock solutions of 50 mg mL^–1 of glab, licoA, and glycy in DMSO were used. […] An overview of the experimental conditions for the exposure experiments with glab, licoA, and glycy is shown in Table S2 (Supporting Information). […] After 3 days in ODM, the effects on cytotoxicity and cell viability of glab, licoA, and glycy in apical-out and apical-in enteroids (passages between 3 and 17) were assessed after 4 and 24 h of incubation. […]
Effects on cell viability after stimulation by glab, licoA, and glycy were assessed by measuring cleavage of the tetrazolium salt WST-1 to formazan catalyzed by cellular mitochondrial dehydrogenases and analyzed using a WST-1 cell viability kit (PromoKine, Heidelberg, Germany), according to the manufacturer’s instructions. Cell viability was expressed as the percentage of the control cells (enteroids or Caco-2 cells grown in a medium) and was calculated with eq 2. […]
For apical-in enteroids, the cleavage of WST-1 to formazan was assessed in the MG. […]

SMILES strings stand for the structures. Where two headings read alike, the source gives them in different places.

Data on three compounds can be found in PMC11421016, “Biotransformation and Epithelial Toxicity of Prenylated Phenolics from Licorice Roots (Glycyrrhiza spp.) in 3D Apical-Out Mucus-Producing Human Enteroids” (Journal of Agricultural and Food Chemistry, 2024).

The term viability denotes a per cent measure of how many cells are alive, often set against a control. For the compound `C=CC(C)(C)c1cc(/C=C/C(=O)c2ccc(O)cc2)c(OC)cc1O` [licochalcone A], in data set [1], the “epithelial barrier (membrane) integrity” value is on record as “did not seem to disrupt”. For the same compound, in the data set on Caco-2 cells, the “highest nontoxic concentration (LDH)” value was “around 75 μM”. In addition, the “cell viability (WST-1), slight decrease, not statistically significant” value in [2] was “approximately 80%”. The viability at 4 h, 500 μg mL^–1 in [3] (apical-out ileal enteroids, 500 μg mL^–1, 4 h exposure, negative control set at 100%, read-out: cell viability (WST-1)) worked out at 77 ± 22%. Moreover, the entries for the “minimum inhibitory concentration (MIC)” value in the data set on Gram-positive bacteria and in the data set with Gram-positive bacteria (equivalent of 12.5 μg mL^–1) were 12.5 μg mL^–1 and 37 µM, respectively.
Take `CC1(C)C=Cc2c(ccc3c2OC[C@@H](c2ccc(O)cc2O)C3)O1` [glabridin]: the “epithelial barrier (membrane) integrity” value in data set [1] was “did not seem to disrupt”. The “highest nonreducing viability concentration” value in data set [4] is reported as 50 μg mL^–1. Also, the “highest nontoxic concentration (LDH)” value in the data set on Caco-2 cells was “around 75 μM”. This compound displayed a viability at 4 h, 500 μg mL^–1 in [3] of 21 ± 14%. This compound came in with a viability at 4 h, 771 µM in [3] of 29%. Further, the “minimum inhibitory concentration (MIC)” value was 12.5 μg mL^–1 in the data set with Gram-positive bacteria and 39 µM with Gram-positive bacteria (equivalent of 12.5 μg mL^–1). For the same compound, the highest noncytotoxic concentration is given as 250 μg mL^–1 in data set [5] and 75 μg mL^–1 in [6]. Moreover, the “highest nonreducing viability concentration (WST-1)” value in data set [7] amounted to 100 μg mL^–1.
In the case of `COc1c(CC=C(C)C)c(O)cc2oc(=O)c(-c3ccc(O)cc3O)cc12` [glycycoumarin], the “epithelial barrier (membrane) integrity” value in data set [1] is recorded as “did not seem to disrupt”. In the data set on Caco-2 cells, the “highest nontoxic concentration (LDH)” value was “around 75 μM”. The compound also registered a viability at 4 h, 500 μg mL^–1 in data set [3] of 77 ± 13%. Further, the “minimum inhibitory concentration (MIC)” value was 12.5 μg mL^–1 in the data set on Gram-positive bacteria and 34 µM with Gram-positive bacteria (equivalent of 12.5 μg mL^–1).
